The numbers were not newly measured in PMC11206245 (Pharmaceuticals, 2024), which cites them from elsewhere.

Read-outs that look alike come from different tables or passages of the source.

On the set-up of data set [1]: method as in PMID 22124669, PMID 20618337. The conditions noted are these: humans; cited from earlier work.
The subject of another data set is dogs. More on the design: method as in PMID 15986212. The conditions noted are these: cited from earlier work.

The term half-life denotes the time in which the quantity being followed falls by half. In the case of `CO[C@H]1/C=C\C=C(/C)C(=O)NC2=CC(=O)C(N)=C(C[C@@H](C)C[C@H](OC)[C@H](O)[C@@H](C)/C=C(\C)[C@@H]1OC(N)=O)C2=O` [17-AG, 17-amino-geldanamycin], the half-life in data set [1] is 6.2 to 7.6 h.

Take `CO[C@H]1/C=C\C=C(/C)C(=O)NC2=CC(=O)C(NCCN(C)C)=C(C[C@@H](C)C[C@H](OC)[C@H](O)[C@@H](C)/C=C(\C)[C@@H]1OC(N)=O)C2=O` [17-DMAG, 17-dimethylaminoethylamino-17-demetoxigeldanamycin]: the Toxicity outcome was “Toxicity was also observed” in the data set on dogs (16 mg/m^2 orally), “Toxicity was also observed” in the data set on dogs (daily intravenous dose of 8 mg/m^2) and “fatal” in the data set on dogs (intravenous daily doses of 16 mg/m^2).
